How the values were obtained:
[1] = biological target: D(2) dopamine receptor (Homo sapiens, UniProt P14416); assay: Displacement of [3H]-spiperone from human dopamine D2 receptor expressed in CHO-K1 cell membranes after 120 mins by liquid scintillation counter method
[2] = biological target: D(3) dopamine receptor (Homo sapiens, UniProt P35462); assay: Displacement of [3H]-spiperone from human dopamine D3 receptor expressed in CHO-K1 cell membranes after 90 mins by liquid scintillation counter method
Sequence of D(3) dopamine receptor (P35462 whole entry): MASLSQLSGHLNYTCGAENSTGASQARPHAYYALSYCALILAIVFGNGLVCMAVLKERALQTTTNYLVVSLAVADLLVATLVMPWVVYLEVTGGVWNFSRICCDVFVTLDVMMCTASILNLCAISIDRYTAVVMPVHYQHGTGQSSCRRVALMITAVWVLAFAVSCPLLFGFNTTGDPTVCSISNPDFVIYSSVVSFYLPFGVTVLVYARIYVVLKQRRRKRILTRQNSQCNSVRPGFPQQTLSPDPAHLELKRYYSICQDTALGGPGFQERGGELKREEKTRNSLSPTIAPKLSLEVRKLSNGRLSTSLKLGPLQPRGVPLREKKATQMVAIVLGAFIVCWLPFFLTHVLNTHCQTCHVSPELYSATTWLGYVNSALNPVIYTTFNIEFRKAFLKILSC

[3] = biological target: Voltage-gated inwardly rectifying potassium channel KCNH2 (Homo sapiens, UniProt Q12809); assay: Inhibition of human ERG tail current expressed in HEK293 cells after 5 mins by patch clamp assay
Sequence of Voltage-gated inwardly rectifying potassium channel KCNH2 (Q12809 whole entry): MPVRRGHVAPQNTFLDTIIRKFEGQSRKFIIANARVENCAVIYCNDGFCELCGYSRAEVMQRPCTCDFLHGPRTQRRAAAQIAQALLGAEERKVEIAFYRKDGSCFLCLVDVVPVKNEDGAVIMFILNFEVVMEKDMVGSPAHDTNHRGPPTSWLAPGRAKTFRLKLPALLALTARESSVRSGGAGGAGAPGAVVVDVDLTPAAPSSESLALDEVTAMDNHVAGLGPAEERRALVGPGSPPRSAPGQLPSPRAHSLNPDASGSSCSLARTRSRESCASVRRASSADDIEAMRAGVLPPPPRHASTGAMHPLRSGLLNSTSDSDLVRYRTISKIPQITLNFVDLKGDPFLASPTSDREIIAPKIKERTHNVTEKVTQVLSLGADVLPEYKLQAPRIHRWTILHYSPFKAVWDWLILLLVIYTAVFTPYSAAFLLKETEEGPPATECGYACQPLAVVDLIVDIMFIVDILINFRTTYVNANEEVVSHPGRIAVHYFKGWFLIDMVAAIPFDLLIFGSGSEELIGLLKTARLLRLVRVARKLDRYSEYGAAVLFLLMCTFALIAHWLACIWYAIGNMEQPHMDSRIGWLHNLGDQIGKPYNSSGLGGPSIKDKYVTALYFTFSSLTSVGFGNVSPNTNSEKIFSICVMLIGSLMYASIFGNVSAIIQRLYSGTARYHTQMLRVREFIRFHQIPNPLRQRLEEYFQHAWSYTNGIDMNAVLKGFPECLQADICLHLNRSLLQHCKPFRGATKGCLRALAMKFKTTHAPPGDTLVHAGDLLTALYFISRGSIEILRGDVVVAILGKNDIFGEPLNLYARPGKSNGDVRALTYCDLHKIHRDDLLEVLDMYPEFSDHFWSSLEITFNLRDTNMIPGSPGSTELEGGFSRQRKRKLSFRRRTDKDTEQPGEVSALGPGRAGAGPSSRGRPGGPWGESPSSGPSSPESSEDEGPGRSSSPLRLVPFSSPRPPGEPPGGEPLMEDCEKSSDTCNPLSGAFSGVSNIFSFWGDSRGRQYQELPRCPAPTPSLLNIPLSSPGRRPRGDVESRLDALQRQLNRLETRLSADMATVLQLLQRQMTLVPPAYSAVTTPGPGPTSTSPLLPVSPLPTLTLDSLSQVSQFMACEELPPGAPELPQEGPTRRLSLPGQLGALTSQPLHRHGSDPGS

Sequence of D(2) dopamine receptor (P14416 whole entry): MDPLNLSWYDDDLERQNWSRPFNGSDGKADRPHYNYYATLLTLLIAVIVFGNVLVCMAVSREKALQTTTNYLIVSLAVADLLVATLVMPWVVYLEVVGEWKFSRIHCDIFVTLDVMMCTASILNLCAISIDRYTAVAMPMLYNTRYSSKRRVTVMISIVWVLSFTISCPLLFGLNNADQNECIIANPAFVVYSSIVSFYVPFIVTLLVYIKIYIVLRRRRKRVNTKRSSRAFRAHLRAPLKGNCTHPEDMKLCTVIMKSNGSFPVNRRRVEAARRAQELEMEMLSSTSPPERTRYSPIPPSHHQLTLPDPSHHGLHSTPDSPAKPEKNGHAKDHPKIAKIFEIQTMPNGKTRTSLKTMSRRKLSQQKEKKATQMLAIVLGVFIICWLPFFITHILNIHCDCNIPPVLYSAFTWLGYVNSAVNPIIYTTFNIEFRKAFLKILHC

| Compound | Ki [1] | Ki [2] | IC50 [3] |
| --- | --- | --- | --- |
| Cc1ccc(N2CCC3CN(CCCSc4nnc(-c5cnccn5)n4C)CC32)cc1 (racemic) | 631 nM | 7.94 nM | – |
| Cc1ncoc1-c1nnc(SCCCN2CC3CCN(c4ccc(F)cc4)C3C2)n1C (stereo in doubt; 9b) | 200 nM | – | – |
| Cn1c(SCCCN2CC3CCN(c4ccc(C(F)(F)F)cc4)C3C2)nnc1-c1cc[nH]c(=O)c1 (stereo in doubt; 55a) | 2000 nM | 15.8 nM | – |
| Cn1c(SCCCN2CC3CCN(c4ccc(C(F)(F)F)cc4)C3C2)nnc1C1CCCCC1 (stereo in doubt; 65a) | – | 12.6 nM | – |
| Cn1c(SCCCN2CC3CCN(c4ccc(C(F)(F)F)cc4)C3C2)nnc1-c1ccc(=O)n(C)c1 (racemic) | – | 6.31 nM | – |
| Cn1c(SCCCN2CC3CCN(c4ccccc4C#N)C3C2)nnc1-c1cnccn1 (racemic) | 200 nM | 6.31 nM | – |
| Cc1ncoc1-c1nnc(SCCCN2CC3CCN(c4ccc(C(F)(F)F)cc4)C3C2)n1C (stereo in doubt; 7b) | – | 3.16 nM | – |
| Cc1cccc(N2CCC3CN(CCCSc4nnc(-c5cnccn5)n4C)CC32)c1 (racemic) | – | 3.98 nM | – |
| Cn1c(SCCCN2CC3CCN(c4ccc(C(F)(F)F)cc4)C3C2)nnc1-c1cncnc1 (racemic) | 1260 nM | 50.1 nM | – |
| Cn1c(SCCCN2CC3CCN(c4ccc(C(F)(F)F)cc4)C3C2)nnc1C1CCCCC1 (racemic) | 6310 nM | 39.8 nM | – |
| Cn1c(SCCCN2CC3CCN(c4ccc(F)cc4F)C3C2)nnc1-c1cnccn1 (stereo in doubt; 36a) | 1000 nM | 10 nM | – |
| Cn1c(SCCCN2CC3CCN(c4ccc(C(F)(F)F)cc4)C3C2)nnc1-c1ccc(=O)[nH]c1 (racemic) | 398 nM | 3.98 nM | 1000 nM |
| Cc1cc(-c2nnc(SCCCN3CC4CCN(c5ccc(C(F)(F)F)cc5)C4C3)n2C)on1 (racemic) | 158 nM | 2.51 nM | – |
| Cc1ncoc1-c1nnc(SCCCN2CC3CCN(c4ccc(C(F)(F)F)cc4)C3C2)n1C (stereo in doubt; 7a) | – | 2 nM | – |
| Cn1c(SCCCN2CC3CCN(c4ccc(C(F)(F)F)cc4)C3C2)nnc1-c1cnccn1 (stereo in doubt; 17a) | 501 nM | – | – |
| Cc1ncoc1-c1nnc(SCCCN2CC3OCCN(c4ccc(C(F)(F)F)cc4)C3C2)n1C (racemic) | – | 31.6 nM | – |
| Cn1c(SCCCN2CC3CCN(c4ccc(C(F)(F)F)cc4)C3C2)nnc1-c1cccnn1 (racemic) | 316 nM | 50.1 nM | – |

| Compound | Ki [1] | Ki [2] | IC50 [3] |
| --- | --- | --- | --- |
| Cn1c(SCCCN2CC3CCN(c4c(F)cccc4F)C3C2)nnc1-c1cnccn1 (racemic) | 631 nM | – | – |
| Cn1c(SCCCN2CC3CCN(c4cccc(OC(F)(F)F)c4)C3C2)nnc1-c1cnccn1 (racemic) | – | 0.316 nM | – |
| Cn1c(SCCCN2CC3CCN(c4ccccc4C(F)(F)F)C3C2)nnc1-c1ccccn1 (racemic) | 316 nM | 5.01 nM | – |
| Cc1ncoc1-c1nnc(SCCCN2CC3CCN(c4ccccc4)C3C2)n1C (stereo in doubt; 6a) | 398 nM | – | 1580 nM |
| Cn1c(SCCCN2CC3CCN(c4ccc(C(F)(F)F)cc4)C3C2)nnc1C1CCCC1 (racemic) | – | 0.398 nM | – |
| Cn1c(SCCCN2CC3CCN(c4c(F)cc(F)cc4F)C3C2)nnc1-c1cnccn1 (racemic) | 631 nM | 1 nM | – |
| CC(C)Oc1ccccc1N1CCC2CN(CCCSc3nnc(-c4cnccn4)n3C)CC21 (stereo in doubt; 35a) | 5010 nM | 63.1 nM | – |
| Cn1c(SCCCN2CC3CCN(c4ccc(F)cc4C(F)(F)F)C3C2)nnc1-c1cnccn1 (racemic) | – | 25.1 nM | – |
| Cc1ncoc1-c1nnc(SCCCN2CC3CN(c4ccc(C(F)(F)F)cc4)C3C2)n1C (racemic) | – | 39.8 nM | 631 nM |
| Cc1ncoc1-c1nnc(SCCCN2CC3CCN(c4cccc(C#N)c4)C3C2)n1C (stereo in doubt; 12b) | 631 nM | 6.31 nM | 794 nM |
| Cn1c(SCCCN2CC3CCN(c4ccc(F)cc4)C3C2)nnc1C1CCCCC1 (racemic) | 794 nM | 12.6 nM | – |
| Cn1c(SCCCN2CC3CCN(c4ccc(C(F)(F)F)cc4)C3C2)nnc1N1CCOCC1 (stereo in doubt; 61b) | 200 nM | 2 nM | – |
| Cc1ncoc1-c1nnc(SCCCN2CC3CCN(c4ccc(C(F)(F)F)cc4F)C3C2)n1C (stereo in doubt; 8a) | 1580 nM | 5.01 nM | 200 nM |
| Cn1cc(-c2nnc(SCCCN3CC4CCN(c5ccc(C(F)(F)F)cc5)C4C3)n2C)cn1 (racemic) | 200 nM | – | – |
| COc1ccccc1N1CCC2CN(CCCSc3nnc(-c4cnccn4)n3C)CC21 (racemic) | 316 nM | 15.8 nM | – |
| Cn1c(SCCCN2CC3CCN(c4c(F)cccc4C(F)(F)F)C3C2)nnc1-c1cnccn1 (racemic) | 398 nM | 3.98 nM | – |
| COc1cc(N2CCC3CN(CCCSc4nnc(-c5cnccn5)n4C)CC32)ccc1F (racemic) | 501 nM | 3.16 nM | – |

Reference: ChEMBL document CHEMBL3774368, “1,2,4-Triazolyl octahydropyrrolo[2,3-b]pyrroles: A new series of potent and selective dopamine D3 receptor antagonists” (Bioorg Med Chem, 2016)
